Experimental data from paper PMC6105673 (Nature Communications, 2018).
No end group written: not given here. *: point of attachment. Biotin = O=C1N[C@H]2[C@H](CS[C@H]2CCCCC(=O)*)N1

Experiments:
[1] = target: T1, pVHL-elongin B-elongin C (VBC) complex (Homo sapiens, UniProt P40337+Q15369+Q15370); assay: Biolayer interferometry kinetic analysis of VBC complex binding to biotinylated HIF-2α peptides; conditions: for ka (association rate): purified VBC; for binding to VBC compared to WT (in words): HIF-2αOH peptides (523–541)
T1 construct: a construct encoding N-terminal GST-tagged pVHL19 (54–213); GST (N, cleaved yes); made in house; host or cells: BL21(DE3) E. coli
Description: Absorbance was read at 450 nm. […] The data were analyzed based on a 1:1 binding model using the BLItz Pro software with the fitted curves shown as gray lines. […] Values represent mean of three experiments conducted with independently purified protein ± SEM. * denotes uncharacterized band
Multiple concentrations of purified VBC complex were diluted in kinetics buffer and allowed to associate with immobilized peptide over 120 s. Subsequently, the SA-BLI probe was immersed into kinetics buffer for 120 s to allow for dissociation. The data were analyzed, step corrected, reference corrected, and fit to a global 1:1 binding model. Kd, ka, and kd were calculated using the BLItz Pro software.

HIS6-PHD2 (181–426) = assay: In vitro hydroxylation assay (HIS6-PHD2 treatment, then IVTT pVHL pull-down); assay type: biochemical; conditions: unmodified biotinylated peptides, 15 μg/mL HIS6-PHD2 (181–426), 1 h room temperature, then IVTT HA-VHL30 under stringent buffer
Description: Considering that prolyl hydroxylation is indispensable for HIF-2α binding to pVHL, we next examined the notion that the A530V mutation negatively influences hydroxylation of HIF-2α via PHD2, which would attenuate HIF-2α A530V binding affinity for pVHL. We conducted an in vitro hydroxylation assay utilizing unmodified peptides (amino acids 523–542) incubated with purified HIS6-PHD2 (catalytic core, amino acids 181–426).
Fig. 5 A subset of class 1 mutations specifically disrupts PHD2-mediated hydroxylation. a, b Biotinylated HIF-2α peptides (residues 523–542) were immobilized on streptavidin- agarose beads and incubated with HIS6-PHD2 for 1 h at room temperature prior to incubation with in vitro transcribed and translated (IVTT) pVHL. Streptavidin beads were pulled down (PD) and levels of HA-tagged pVHL were visualized via immmunoblotting (IB). c HEK293a cells were co-transfected with FLAG-VHL and HA-HIF-2α constructs. FLAG was immunoprecipitated (IP) and levels of HA-tagged HIF-2α were visualized via immunoblotting (IB). * denotes uncharacterized band
The in vitro pVHL-HIF-2α hydroxylation assay was performed according to a previously published protocol. 5 μg of biotinylated HIF-2α peptide was immobilized on streptavidin-agarose beads. Subsequently, peptides were incubated with 15 μg/mL HIS6-PHD2 (181–426) in 500 μL of 40 mM HEPES pH 7.4, 80 mM KCl, 5 mM a-ketoglutarate, 2 mM ascorbic acid, 100 μM FeCl2 tetrahydrate solution at room temperature for 1 h. FeCl2 was stored under anoxic conditions to prevent oxidation. Following hydroxylation, beads were washed 5x with EBC buffer and peptides were incubated with IVTT HA-VHL30 under the stringent buffer conditions described above.

[2] = BLItz biolayer interferometry, peptide (523–541) immobilized, global 1:1 model, mean of three experiments ± SEM

T1 sequence (P40337 54-213): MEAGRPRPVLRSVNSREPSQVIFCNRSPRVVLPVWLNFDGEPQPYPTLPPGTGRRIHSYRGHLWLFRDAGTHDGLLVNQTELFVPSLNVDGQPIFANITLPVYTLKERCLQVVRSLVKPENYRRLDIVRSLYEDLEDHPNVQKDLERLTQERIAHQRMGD
T1 sequence (Q15370 whole entry partner): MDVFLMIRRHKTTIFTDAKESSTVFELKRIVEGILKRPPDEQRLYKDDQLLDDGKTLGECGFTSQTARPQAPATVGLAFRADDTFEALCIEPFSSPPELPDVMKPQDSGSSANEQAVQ
T1 sequence (Q15369 17-112 partner limits assumed): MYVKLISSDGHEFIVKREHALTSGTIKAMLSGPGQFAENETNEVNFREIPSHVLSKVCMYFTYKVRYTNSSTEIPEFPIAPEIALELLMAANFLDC

Molecule	ka (association rate) [1, 2]	binding to VBC compared to WT (in words) ([1]; BLI)	ka (association rate) ([1]; BLI, 1:1 model) [M/s]	binding to pVHL following HIS6-PHD2 treatment (immunoblot, in words) (HIS6-PHD2 (181–426))
CC[C@H](C)[C@H](NC(=O)[C@H](Cc1ccc(O)cc1)NC(=O)[C@@H]1C[C@@H](O)CN1C(=O)[C@@H](NC(=O)[C@H](CC(C)C)NC(=O)[C@@H](NC(=O)[C@H](CCC(=O)O)NC(=O)[C@H](CC(C)C)NC(=O)[C@H](CC(=O)O)NC(=O)[C@H](CC(C)C)NC(=O)[C@H](CCC(=O)O)NC(=O)CCCC[C@@H]1SC[C@@H]2NC(=O)N[C@@H]21)[C@@H](C)O)[C@@H](C)O)C(=O)N1CCC[C@H]1C(=O)N[C@@H](CCSC)C(=O)N[C@@H](CC(=O)O)C(=O)NCC(=O)N[C@@H](CCC(=O)O)C(=O)N[C@@H](CC(=O)O)C(=O)N[C@@H](Cc1ccccc1)C(=O)N[C@@H](CCC(N)=O)C(N)=O [HIF-2αOH (A530T)]	3.4 ± 0.3 x10^4 Ms^−1	–	–	–
CC[C@H](C)[C@H](NC(=O)[C@H](Cc1ccc(O)cc1)NC(=O)[C@@H]1C[C@@H](O)CN1C(=O)[C@@H](NC(=O)[C@H](CC(C)C)NC(=O)[C@@H](NC(=O)[C@H](CCC(=O)O)NC(=O)[C@H](CC(C)C)NC(=O)[C@H](CC(=O)O)NC(=O)[C@H](CC(C)C)NC(=O)[C@H](CCC(=O)O)NC(=O)CCCC[C@@H]1SC[C@@H]2NC(=O)N[C@@H]21)[C@@H](C)O)C(C)C)C(=O)N1CCC[C@H]1C(=O)N[C@@H](CCSC)C(=O)N[C@@H](CC(=O)O)C(=O)NCC(=O)N[C@@H](CCC(=O)O)C(=O)N[C@@H](CC(=O)O)C(=O)N[C@@H](Cc1ccccc1)C(=O)N[C@@H](CCC(N)=O)C(N)=O [HIF-2αOH (A530V)]	2.7 ± 0.2 x10^4 Ms^−1	–	–	–
CC[C@H](C)[C@H](NC(=O)[C@H](Cc1ccc(O)cc1)NC(=O)[C@@H]1C[C@@H](O)CN1C(=O)[C@H](C)NC(=O)[C@H](CC(C)C)NC(=O)[C@@H](NC(=O)[C@H](CCC(=O)O)NC(=O)[C@H](CC(C)C)NC(=O)[C@H](CC(=O)O)NC(=O)[C@H](CC(C)C)NC(=O)[C@H](CCC(=O)O)NC(=O)CCCC[C@@H]1SC[C@@H]2NC(=O)N[C@@H]21)[C@@H](C)O)C(=O)N1CCC[C@H]1C(=O)N[C@@H](CCSC)C(=O)N[C@@H](CC(=O)O)C(=O)NCC(=O)N[C@@H](CCC(=O)O)C(=O)N[C@@H](CCC(=O)O)C(=O)N[C@@H](Cc1ccccc1)C(=O)N[C@@H](CCC(N)=O)C(N)=O [HIF-2αOH (D539E)]	3.6 ± 0.05 x10^4 Ms^−1	little defect	–	–
CC[C@H](C)[C@H](NC(=O)[C@H](Cc1ccc(O)cc1)NC(=O)[C@@H]1C[C@@H](O)CN1C(=O)[C@H](C)NC(=O)[C@H](CC(C)C)NC(=O)[C@@H](NC(=O)[C@H](CCC(=O)O)NC(=O)[C@H](CC(C)C)NC(=O)[C@H](CC(=O)O)NC(=O)[C@H](CC(C)C)NC(=O)[C@H](CCC(=O)O)NC(=O)CCCC[C@@H]1SC[C@@H]2NC(=O)N[C@@H]21)[C@@H](C)O)C(=O)N1CCC[C@H]1C(=O)N[C@@H](CCSC)C(=O)N[C@@H](CC(=O)O)C(=O)NCC(=O)N[C@@H](CCC(=O)O)C(=O)N[C@@H](CC(=O)O)C(=O)N[C@@H](CC(C)C)C(=O)N[C@@H](CCC(N)=O)C(N)=O [HIF-2αOH (F540L)]	3.1 ± 0.3 x10^4 Ms^−1	–	31000	–
CC[C@H](C)[C@H](NC(=O)[C@H](Cc1ccc(O)cc1)NC(=O)[C@@H]1C[C@@H](O)CN1C(=O)[C@H](C)NC(=O)[C@H](CC(C)C)NC(=O)[C@@H](NC(=O)[C@H](CCC(=O)O)NC(=O)[C@H](CC(C)C)NC(=O)[C@H](CC(=O)O)NC(=O)[C@H](CC(C)C)NC(=O)[C@H](CCC(=O)O)NC(=O)CCCC[C@@H]1SC[C@@H]2NC(=O)N[C@@H]21)[C@@H](C)O)C(=O)N1CCC[C@H]1C(=O)N[C@@H](CCSC)C(=O)N[C@@H](CC(=O)O)C(=O)N[C@@H](CCCNC(=N)N)C(=O)N[C@@H](CCC(=O)O)C(=O)N[C@@H](CC(=O)O)C(=O)N[C@@H](Cc1ccccc1)C(=O)N[C@@H](CCC(N)=O)C(N)=O [HIF-2αOH (G537R)]	3.0 ± 0.2 x10^4 Ms^−1	–	30000	–
CC[C@H](C)[C@H](NC(=O)[C@@H]1CCCN1C(=O)[C@@H](NC(=O)[C@H](Cc1ccc(O)cc1)NC(=O)[C@@H]1C[C@@H](O)CN1C(=O)[C@H](C)NC(=O)[C@H](CC(C)C)NC(=O)[C@@H](NC(=O)[C@H](CCC(=O)O)NC(=O)[C@H](CC(C)C)NC(=O)[C@H](CC(=O)O)NC(=O)[C@H](CC(C)C)NC(=O)[C@H](CCC(=O)O)NC(=O)CCCC[C@@H]1SC[C@@H]2NC(=O)N[C@@H]21)[C@@H](C)O)[C@@H](C)CC)C(=O)N[C@@H](CC(=O)O)C(=O)NCC(=O)N[C@@H](CCC(=O)O)C(=O)N[C@@H](CC(=O)O)C(=O)N[C@@H](Cc1ccccc1)C(=O)N[C@@H](CCC(N)=O)C(N)=O [HIF-2αOH (M535I)]	3.1 ± 0.2 x10^4 Ms^−1	little defect	–	–
CC[C@H](C)[C@H](NC(=O)[C@H](CS)NC(=O)[C@@H]1C[C@@H](O)CN1C(=O)[C@H](C)NC(=O)[C@H](CC(C)C)NC(=O)[C@@H](NC(=O)[C@H](CCC(=O)O)NC(=O)[C@H](CC(C)C)NC(=O)[C@H](CC(=O)O)NC(=O)[C@H](CC(C)C)NC(=O)[C@H](CCC(=O)O)NC(=O)CCCC[C@@H]1SC[C@@H]2NC(=O)N[C@@H]21)[C@@H](C)O)C(=O)N1CCC[C@H]1C(=O)N[C@@H](CCSC)C(=O)N[C@@H](CC(=O)O)C(=O)NCC(=O)N[C@@H](CCC(=O)O)C(=O)N[C@@H](CC(=O)O)C(=O)N[C@@H](Cc1ccccc1)C(=O)N[C@@H](CCC(N)=O)C(N)=O [HIF-2αOH (Y532C)]	4.9 ± 0.2 x10^4 Ms^−1	–	–	–
CC[C@H](C)[C@H](NC(=O)[C@H](Cc1ccc(O)cc1)NC(=O)[C@@H]1C[C@@H](O)CN1C(=O)[C@H](C)NC(=O)[C@H](CC(C)C)NC(=O)[C@@H](NC(=O)[C@H](CCC(=O)O)NC(=O)[C@H](CC(C)C)NC(=O)[C@H](CC(=O)O)NC(=O)[C@H](CC(C)C)NC(=O)[C@@H](N)CCC(=O)O)[C@@H](C)O)C(=O)N1CCC[C@H]1C(=O)N[C@@H](CCSC)C(=O)N[C@@H](CC(=O)O)C(=O)NCC(=O)N[C@@H](CCC(=O)O)C(=O)N[C@@H](CC(=O)O)C(=O)N[C@@H](Cc1ccccc1)C(=O)N[C@@H](CCC(N)=O)C(N)=O [HIF-2αOH (wild-type)]	4.1 ± 0.4 x10^4 Ms^−1	–	41000	–
Bio-HIF-2α(A530T): unmodified HIF-2α peptide (523–542) with A530T mutation (Biotin-ELDLETLTPYIPMDGEDFQL-NH2; SMILES CC[C@H](C)[C@H](NC(=O)[C@H](Cc1ccc(O)cc1)NC(=O)[C@@H]1CCCN1C(=O)[C@@H](NC(=O)[C@H](CC(C)C)NC(=O)[C@@H](NC(=O)[C@H](CCC(=O)O)NC(=O)[C@H](CC(C)C)NC(=O)[C@H](CC(=O)O)NC(=O)[C@H](CC(C)C)NC(=O)[C@H](CCC(=O)O)NC(=O)CCCC[C@@H]1SC[C@@H]2NC(=O)N[C@@H]21)[C@@H](C)O)[C@@H](C)O)C(=O)N1CCC[C@H]1C(=O)N[C@@H](CCSC)C(=O)N[C@@H](CC(=O)O)C(=O)NCC(=O)N[C@@H](CCC(=O)O)C(=O)N[C@@H](CC(=O)O)C(=O)N[C@@H](Cc1ccccc1)C(=O)N[C@@H](CCC(N)=O)C(=O)N[C@@H](CC(C)C)C(N)=O)	–	–	–	only minimally able to bind pVHL
Bio-HIF-2α(A530V): unmodified HIF-2α peptide (523–542) with A530V mutation (Biotin-ELDLETLVPYIPMDGEDFQL; UniProt Q99814 523-542, looked up, fragment A530V)	–	–	–	only minimally able to bind pVHL
HIF-2α (wild-type): biotinylated non-hydroxylated wild-type HIF-2α peptide, residues 523–541	–	–	–	failed to bind pVHL
HIF-2α L542P peptide: unmodified HIF-2α peptide (523–542) with class 1 mutation L542P (Biotin-ELDLETLAPYIPMDGEDFQP-NH2; SMILES CC[C@H](C)[C@H](NC(=O)[C@H](Cc1ccc(O)cc1)NC(=O)[C@@H]1CCCN1C(=O)[C@H](C)NC(=O)[C@H](CC(C)C)NC(=O)[C@@H](NC(=O)[C@H](CCC(=O)O)NC(=O)[C@H](CC(C)C)NC(=O)[C@H](CC(=O)O)NC(=O)[C@H](CC(C)C)NC(=O)[C@H](CCC(=O)O)NC(=O)CCCC[C@@H]1SC[C@@H]2NC(=O)N[C@@H]21)[C@@H](C)O)C(=O)N1CCC[C@H]1C(=O)N[C@@H](CCSC)C(=O)N[C@@H](CC(=O)O)C(=O)NCC(=O)N[C@@H](CCC(=O)O)C(=O)N[C@@H](CC(=O)O)C(=O)N[C@@H](Cc1ccccc1)C(=O)N[C@@H](CCC(N)=O)C(=O)N1CCC[C@H]1C(N)=O)	–	–	–	failed to bind pVHL
